Literature values in US20030082231A1, “Coating for orally administered compositions” (priority 2001, published 2003).

Test system: sister chromatid exchanges (SCE) damage induced by benzo(a)pyrene

chlorophyllin
genotoxic inhibition (frequency of sister chromatid exchanges) (SCE damage induced by benzo(a)pyrene, in vivo): about 80% | cell proliferation kinetics (CPK) (chlorophyllin plus benzo(a)pyrene): inhibition of the cell proliferation kinetics
